In series [1] the test system is SRF transcriptional activity. Description: SRF transcriptional activity, 4x CArG (SRE) promoter luciferase reporter in C2C12 cells. Type of series: cell-based. (A reporter such as luciferase makes a cellular process visible.)
Text: To determine whether SRF transcriptional activity is also changed in insulin resistance, 4× tandem repeat of SRF binding element (SRE) CArG boxes (Kuwahara et al., Mol. Cell Biol. 25:3173-3181 (2005)) promoters linked to a luciferase gene were used as a reporter.
The next series concerns Akt. In words: Akt phosphorylation in myotubes (phosphoimmunoblot). Type of series: cell-based. The conditions noted are these: for increase of insulin-stimulated Akt phosphorylation: C2C12 myotubes. The procedure: (§1) siRNA was used to specifically reduce MKL1 expression, achieving an effective knockdown of about 60%. This increased insulin-stimulated phosphorylation of Akt (Ser473), expressed relative to total Akt protein content, by 2-fold (p<0.01). […] Thus, siRNA-mediated reduction in MKL1 expression enhances both basal and insulin-stimulated glucose uptake in cultured myotubes.
The next experiments were performed to determine whether SRF transcriptional activity, rather than expression of SRF itself, is important for maintaining appropriate insulin sensitivity. A new compound, CCG-1423, is available for specifically inhibiting SRF transcriptional activity (Evelyn et al., Mol. Cancer. Ther. 6:2249-2260 (2007)). […] CCG-1423 was then evaluated to test the possibility that reducing SRF transcriptional activity improves insulin sensitivity. Indeed, this is the case. A dramatic improvement in insulin sensitivity resulted from treatment with CCG-1423 in dexamethasone-induced insulin resistant myotubes, as CCG-1423 increased insulin-simulated Akt phosphorylation (a marker of insulin sensitivity) (FIG. 11A).
(§2) In parallel, CCG-1423 enhanced insulin action in C2C12 myotubes. Overnight treatment with 1 μM CCG-1423 increased insulin-stimulated Akt phosphorylation, both in the presence and absence of dexamethasone (41% for both, p=0.01 and p=0.007, respectively), while having no effect on p42/44 ERK phosphorylation (FIG. 11C).
In general terms: Immunoblotting shows a protein as a band on a membrane.

In another series the test system is p42/44 ERK. Description: ERK phosphorylation in C2C12 myotubes (phosphoimmunoblot). Type of series: cell-based. Conditions: overnight 1 μM CCG-1423, FIG. 11C. How it is done: as §2
The next series relates to IRS-1. Description: IR / IRS-1 tyrosine phosphorylation and p85 PI 3-kinase association in myotubes. Type of series: cell-based.
Text: FIG. 11D is a phosphoimmunoblot showing that CCG-1423 increases basal and insulin-stimulated tyrosine phosphorylation of IRS-1 and its association with p85-PI 3-kinase, in both control and DEX-treated myotubes. * indicates p<0.05, **p<0.01, ***p<0.001.
(§3) The molecular mechanism of the ability of CCG-1423 to reverse insulin resistance was further explored. The insulin—insulin receptor (1R)—insulin receptor substrate (IRS-1) pathway is the dominant up-stream signalling activator of Akt.
as §2

The test system of the next series is MKL1. In words: MKL1 cellular localization in C2C12 myoblasts. The series is classed as cell-based.
For another series, the system named is C2C12 myotubes. Description: Deoxyglucose uptake in cultured (C2C12) myotubes. Type of series: cell-based. The conditions noted are these: FIG. 11E.
Text: as §1
(§4) Since CCG-1423 increased insulin signalling in myotubes, we hypothesized that CCG-1423 might also enhance glucose uptake. In DMSO (vehicle)-treated myotubes, insulin stimulated a 2-fold increase in deoxyglucose uptake in a dose-dependent manner, consistent with prior reports and the low insulin responsiveness in cultured myotubes (FIG. 11E). […] In parallel, expression of the dominant glucose transporters GLUT4 and GLUT1 was increased by CCG-1423 treatment by 4.1 and 2.5 fold, respectively (p<0.004).

Another series deals with L6 myotubes. Description: 2-deoxyglucose uptake in L6 myotubes. Type of series: cell-based. Conditions: CCG-1423 1 uM, 16 hours, FIG. 11E. How it is done: FIG. 11E is a line graph showing that both basal and insulin-stimulated 2-deoxyglucose uptake are increased by >4-fold in L6 myotubes following CCG-1423, with enhanced insulin sensitivity (1 uM, 16 hours). * indicates p<0.05, **p<0.01, ***p<0.001.

The test system of the next series is human myotubes. In words: Basal glucose uptake in human myotubes from control and diabetic subjects. The series is classed as cell-based. The procedure: The effects of CCG-1423 on human myotubes, and whether these effects would differ in myotubes derived from controls (n=2) vs. diabetic subjects (n=6), were also evaluated. […] The differential responsiveness in subjects with DM supports the concept that SRF pathways are more robustly activated in humans with insulin resistance and DM, and therefore potentially more sensitive to SRF inhibition.

For the next series, the system named is GLUT4. In words: GLUT4 expression in myotubes. Conditions: CCG-1423 treatment, p<0.004. Type of series: cell-based.
Text: as §4

For the next series, the system named is GLUT1. Description: GLUT1 expression in myotubes. The series is classed as cell-based. The conditions noted are these: CCG-1423 treatment, p<0.004.
Text: as §4

Series [2] has as its system mice with diet-induced obesity. In words: CCG-1423 treatment of mice with diet-induced obesity (HFD). Type of series: in vivo. The procedure: To examine the therapeutic potential of this SRF inhibitor in vivo, we assessed responses to CCG-1423 treatment in mice with diet-induced obesity. […] The HFD mice were administered CCG-1423 (0.15 mg/kg body weight intraperitoneally) for two weeks.
In parallel, the high insulin levels associated with insulin resistance were normalized by CCG-1423 treatment (FIG. 13C).

Series [3] has as its system SRF target gene expression. In words: SRF target gene expression in CCG-1423 treated cells. Type of series: cell-based. Conditions: basal or insulin stimulated state.
Text: as §3

In another series the test system is STARS. In words: STARS expression in C2C12 myotubes after actin disruption. The series is classed as cell-based. The conditions noted are these: p<0.03, not shown. An excerpt:
Additional pathway analysis using MAPPFinder confirmed that serum response factor (SRF)-dependent and actin-related cytoskeleton gene expression is increased in diabetes, and more importantly, also in insulin resistance. The top-ranking single gene differentially expressed in skeletal muscle in the fasting state is the Actin-binding Rho activating protein (ABRA), or STARS, increased by 2.5 fold in individuals with type 2 diabetes (p<0.01). This gene regulates intracellular actin dynamics and subcellular localization of MKL1/2, thus contributing to SRF-dependent gene transcription. Since disruption of actin by latrunculin B increases STARS expression in C2C12 cells by 50% in C2C12 myotubes (p<0.03, not shown), it was hypothesize that increased STARS expression in DM may reflect disruption of actin dynamics and also contribute to the pattern of increased SRF-related gene expression. Similar patterns of SRF-dependent expression are also observed in adipose tissue from insulin resistant subjects and in insulin resistant muscle.

The test system of a further series is SRF. In words: Low density DNA binding arrays, SRF DNA binding activity. Type of series: cell-based. The conditions noted are these: C2C12 myotubes. The procedure:
To explore the above possibility, DNA binding activity of SRF and it co-factor ELK1 to the target gene promoter was first evaluated. To this end, electrophoretic mobility shift assays (EMSA) were performed. […] In support to this idea, in low density DNA binding arrays, SRF DNA binding activity was dramatically (5-10 fold, respectively) increased in primary myotubes from insulin resistant human and free fatty acid (FFA)-treated C2C12 myotubes compared to control.

Series [4] has as its system MKL1-dependent and -independent SRF pathways. In words: Gene set enrichment of SRF pathways in C2C12 myotubes. Type of series: cell-based. The conditions noted are these: compared with control BSA treated cells.

Structures are written as SMILES. “Also recorded” adds a separate entry of the source.

This note sets out measurements from patent US8524661B2, “Inhibiting serum response factor (SRF) to improve glycemic control” (Joslin Diabetes Center, Inc., priority 2008, dated 2013).

As for `CC(ONC(=O)c1cc(C(F)(F)F)cc(C(F)(F)F)c1)C(=O)Nc1ccc(Cl)cc1` (stereo not shown) [CCG-1423], the “SRF-mediated transcriptional activity (4x CArG / SRE promoter activity)” value in [1] (C2C12 myoblasts, serum (FBS 2 hours) or dexamethasone stimulation, CCG-1423 1 uM, 16 hours pre-treatment, FIG. 11B) is recorded as “efficiently blocked”. In addition, the “SRF transcriptional activity induced by serum, dexamethasone, and insulin” value in series [1] (C2C12 myotubes, FIG. 10) is reported as “specifically block; also recorded: inhibits”. Also, the “increase of insulin-stimulated Akt phosphorylation” value in the series on Akt (overnight 1 μM CCG-1423, absence of dexamethasone, p=0.007) was 41%; with Akt (overnight 1 μM CCG-1423, presence of dexamethasone, p=0.01), 41%. Besides, the “insulin-stimulated Akt phosphorylation (marker of insulin sensitivity)” value in the series with Akt (dexamethasone-induced insulin resistant myotubes, FIG. 11A) is given as “increased; also recorded: improves”. In addition, the “insulin-stimulated Akt phosphorylation” value in the series with Akt (insulin 100 nM, 10 minutes, FIG. 11C) is recorded as “increases”. In the series on p42/44 ERK, the “p42/44 ERK phosphorylation” value is “no effect; also recorded: minimal change”. Besides, the p85 expression result with IRS-1 (C2C12 myotubes) is “without altering”. Also, the “basal and insulin-stimulated tyrosine phosphorylation of IRS-1 and its association with p85 PI 3-kinase” value in the series on IRS-1 (control and DEX-treated myotubes, FIG. 11D) was “increases”. For the same molecule, the “phosphorylation of IR and IRS-1 protein” value with IRS-1 (with insulin stimulation) is listed as “massive phosphorylation”. In addition, in the series with MKL1 (compound alone), the MKL1 localization entry was “almost exclusively localized to the cytoplasm”. Besides, the “MKL1 localization, effect on dexamethasone-induced nuclear localization” value with MKL1 (with dexamethasone) was “reversed dexamethasone-induced MKL1 nuclear localization to partial cytoplasmic localization”. Also, the “insulin-stimulated deoxyglucose uptake response” value in the series with C2C12 myotubes (myotubes incubated with CCG-1423, 1 uM insulin) was 11.5 fold. Moreover, in the series with C2C12 myotubes (myotubes incubated with CCG-1423), the “glucose uptake increase in the basal state” value is 4 fold. Further, the “basal and insulin-stimulated 2-deoxyglucose uptake increase” value in the series on L6 myotubes is given as > 4 fold. In addition, the entries for the “basal increase in glucose uptake (mean)” value in the series on human myotubes (myotubes from control subjects (n=2)) and with human myotubes (myotubes from diabetic subjects (n=6)) were 1.2 fold and 3.2 fold, respectively. The GLUT4 expression increase in the series on GLUT4 was 4.1 fold. This molecule also yielded a GLUT1 expression increase with GLUT1 of 2.5 fold. Also, the “serum insulin levels during glucose tolerance test” value in [2] (15 minutes after glucose injection, HFD+CCG vs vehicle-treated HFD, FIG. 13C) was “normalized; also recorded: significantly reduced”. The “expression of SRF or ELK1” value in series [2] (HFD mice, 0.15 mg/kg intraperitoneally, two weeks) is given as “did not alter”. Moreover, the “expression of SRF targets in skeletal muscle, e.g., ZYX and PDLIM7” value in series [2] (HFD mice, 0.15 mg/kg intraperitoneally, two weeks, vs vehicle-injected controls) is reported as “significantly decreased”. The food intake result in series [2] (HFD mice, 0.15 mg/kg intraperitoneally, two weeks, vs vehicle-treated HFD mice) is on record as “No significant change”. Also, the body weight result in series [2] (HFD mice, 0.15 mg/kg intraperitoneally, two weeks, vs vehicle-treated HFD mice, FIG. 12, 0.15 mg/kg) is “No significant change; also recorded: not altered”. Also, the “glucose tolerance test area under the curve (AUC)” value in series [2] (HFD+CCG vs vehicle-treated HFD animals, FIG. 13B, p<0.006) is on record as “significantly reduced”. Moreover, the adiponectin levels result in series [2] (HFD-fed mice) was “No differences”. The “circulating fatty acid levels” value in series [2] (HFD-fed mice) is “No differences”. The insulin tolerance testing entry in [2] (HFD-fed mice) is on record as “No differences”. In addition, the “in vivo glucose tolerance (intra peritoneal glucose tolerance test)” value in series [2] (HFD-fed mice vs HFD-fed vehicle-treated controls, FIG. 13A) is “significantly improved; also recorded: improves”. Also, in [3], the “SRF target gene expression” value was “does not induces”.
As for `C/C1=C/C(=O)O[C@@H]2C[C@@H](CC[C@H](C)/C=C\CC1)O[C@@](O)([C@@H]1CSC(=O)N1)C2` [latrunculin B], the “increase of STARS expression” value with STARS amounted to 50%.
`CCCCCCCCCCCCCCCC(=O)O` [FFA]: the “SRF transcriptional activity at basal level” value in series [1] (C2C12 myotubes, experimentally induced insulin resistance, FIG. 4) was “dramatically increased”. For the same molecule, the “increase of SRF DNA binding activity compared to control” value with SRF is reported as 5-10 fold. The “enrichment of MKL1-dependent and -independent SRF pathways” value in [4] was “significant enrichment”.
